MIC data for three molecules are collected here from ChEMBL document CHEMBL1629608, “Variations in amino acid composition of antisense peptide-phosphorodiamidate morpholino oligomer affect potency against Escherichia coli in vitro and in vivo” (Antimicrob Agents Chemother, 2009).

SMILES strings stand for the structures. Converted amounts (≈) assume the structure as drawn.

Broadly, the MIC is the lowest concentration that inhibits growth of the organism. The low end stands for inhibition by little substance, the high end for a need for much substance.

The subject of this assay is Escherichia coli. As to the kind of experiment: Antibacterial activity against Escherichia coli K-12 W3110 by microdilution method. Format: functional. The conditions noted are these: K-12 substr. W3110. In general terms: Dilution methods test growth across graded concentrations, often in twofold steps.
In the case of `Cc1cn([C@H]2CN(P(=O)(OC[C@@H]3CN(P(=O)(OC[C@@H]4CN(P(=O)(OC[C@@H]5CN(P(=O)(OC[C@@H]6CN(P(=O)(OC[C@@H]7CN(P(=O)(OC[C@@H]8CN(P(=O)(OC[C@@H]9CN(P(=O)(OC[C@@H]%10CNC[C@H](n%11cnc%12c(=O)[nH]c(N)nc%12%11)O%10)N(C)C)C[C@H](n%10cc(C)c(=O)[nH]c%10=O)O9)N(C)C)C[C@H](n9cnc%10c(=O)[nH]c(N)nc%109)O8)N(C)C)C[C@H](n8cnc9c(N)ncnc98)O7)N(C)C)C[C@H](n7cc(C)c(=O)[nH]c7=O)O6)N(C)C)C[C@H](n6cnc7c(N)ncnc76)O5)N(C)C)C[C@H](n5cnc6c(=O)[nH]c(N)nc65)O4)N(C)C)C[C@H](n4ccc(N)nc4=O)O3)N(C)C)C[C@@H](COP(=O)(N(C)C)N3C[C@@H](COP(=O)(N(C)C)N4C[C@@H](COP(=O)(N(C)C)N5CCN(C(=O)CCNC(=O)CCCCCNC(=O)[C@H](CCCNC(=N)N)NC(=O)CCNC(=O)[C@H](CCCNC(=N)N)NC(=O)[C@H](CCCNC(=N)N)NC(=O)CCCCCNC(=O)[C@H](CCCNC(=N)N)NC(=O)NC(=O)[C@H](CCCNC(=N)N)NC(=O)CCNC(=O)[C@H](CCCNC(=N)N)NC(=O)[C@H](CCCNC(=N)N)NC(=O)CCCCCNC(=O)[C@@H](N)CCCNC(=N)N)CC5)O[C@@H](n5ccc(N)nc5=O)C4)O[C@@H](n4cc(C)c(=O)[nH]c4=O)C3)O2)c(=O)[nH]c1=O` (stereo partly drawn), the minimal inhibitory concentration (MIC) was 2.5 µM (≈ 14.1 µg/mL).
Molecule `Cc1cn([C@H]2CN(P(=O)(OC[C@@H]3CN(P(=O)(OC[C@@H]4CN(P(=O)(OC[C@@H]5CN(P(=O)(OC[C@@H]6CN(P(=O)(OC[C@@H]7CN(P(=O)(OC[C@@H]8CN(P(=O)(OC[C@@H]9CN(P(=O)(OC[C@@H]%10CNC[C@H](n%11cnc%12c(=O)[nH]c(N)nc%12%11)O%10)N(C)C)C[C@H](n%10cc(C)c(=O)[nH]c%10=O)O9)N(C)C)C[C@H](n9cnc%10c(=O)[nH]c(N)nc%109)O8)N(C)C)C[C@H](n8cnc9c(N)ncnc98)O7)N(C)C)C[C@H](n7cc(C)c(=O)[nH]c7=O)O6)N(C)C)C[C@H](n6cnc7c(N)ncnc76)O5)N(C)C)C[C@H](n5cnc6c(=O)[nH]c(N)nc65)O4)N(C)C)C[C@H](n4ccc(N)nc4=O)O3)N(C)C)C[C@@H](COP(=O)(N(C)C)N3C[C@@H](COP(=O)(N(C)C)N4C[C@@H](COP(=O)(N(C)C)N5CCN(C(=O)CCNC(=O)CCCCCNC(=O)[C@H](CCCNC(=N)N)NC(=O)CCCCCNC(=O)[C@@H](N)CCCNC(=N)N)CC5)O[C@@H](n5ccc(N)nc5=O)C4)O[C@@H](n4cc(C)c(=O)[nH]c4=O)C3)O2)c(=O)[nH]c1=O` (stereo partly drawn) returned an MIC of over 80 µM.
Molecule `Cc1cn([C@H]2CN(P(=O)(OC[C@@H]3CN(P(=O)(OC[C@@H]4CN(P(=O)(OC[C@@H]5CN(P(=O)(OC[C@@H]6CN(P(=O)(OC[C@@H]7CN(P(=O)(OC[C@@H]8CN(P(=O)(OC[C@@H]9CN(P(=O)(OC[C@@H]%10CNC[C@H](n%11cnc%12c(=O)[nH]c(N)nc%12%11)O%10)N(C)C)C[C@H](n%10cc(C)c(=O)[nH]c%10=O)O9)N(C)C)C[C@H](n9cnc%10c(=O)[nH]c(N)nc%109)O8)N(C)C)C[C@H](n8cnc9c(N)ncnc98)O7)N(C)C)C[C@H](n7cc(C)c(=O)[nH]c7=O)O6)N(C)C)C[C@H](n6cnc7c(N)ncnc76)O5)N(C)C)C[C@H](n5cnc6c(=O)[nH]c(N)nc65)O4)N(C)C)C[C@H](n4ccc(N)nc4=O)O3)N(C)C)C[C@@H](COP(=O)(N(C)C)N3C[C@@H](COP(=O)(N(C)C)N4C[C@@H](COP(=O)(N(C)C)N5CCN(C(=O)CCNC(=O)CCCCCNC(=O)[C@H](Cc6ccccc6)NC(=O)[C@H](Cc6ccccc6)NC(=O)[C@H](CCCNC(=N)N)NC(=O)[C@H](Cc6ccccc6)NC(=O)[C@H](Cc6ccccc6)NC(=O)[C@@H](N)CCCNC(=N)N)CC5)O[C@@H](n5ccc(N)nc5=O)C4)O[C@@H](n4cc(C)c(=O)[nH]c4=O)C3)O2)c(=O)[nH]c1=O` (stereo partly drawn) returned an MIC of 20 µM (≈ 97.4 µg/mL).
